Test results published in US7084158B2, “Substituted propargylamines” (Bayer Cropscience S.A., priority 2001, dated 2006).

Tests used:
Format in all cases: in vivo
Parameters in all cases: key: compounds were considered to be active when, at a concentration of 500 ppm or less, they had an activity on the harmful organisms of 50% or more
[1] = tested on: Nilaparvata lugens; assay: Example A: rice leaf dip, leafhopper larvae mortality; details: 500 ppm or less; L3 larvae on dipped rice plants; after 6 days
Protocol: The leaves of 12 rice plants having a stem length of 8 cm were dipped for 5 seconds into an aqueous solution of the formulated compound to be examined. After the solution had run off, the rice plants treated in this manner were placed into a Petri dish and populated with about 20 larvae (L3 stage) of the rice leafhopper species Nilaparvata lugens. The Petri dish was closed and then stored in a climatized chamber (16 hours of light/day, 25° C., 40–60% relative atmospheric humidity). After 6 days of storage, the mortality among the leafhopper larvae was determined. The compounds of the following examples were active: Nos. 29, 32, 42, 43, 51, 70, 84, 1002, 1004, 1005, 1040, 180, 184, 193, 197, 203, 209, 1059, 264, 265, 1066.

[2] = tested on: Heliothis virescens; assay: Example B: tobacco budworm eggs on filter paper/insect diet, mortality; details: 500 ppm or less; 24-hour-old eggs dipped, diet treated; after 6 days
[3] = tested on: Diabrotica undecimpunctata; assay: Example C: corn rootworm eggs with maize corn, mortality; details: 500 ppm or less; 4-5-day-old eggs; after 6 days
[4] = tested on: Carpocapsa pomonella; assay: Example D: dipped apples, codling moth L1 larvae mortality; details: 500 ppm or less, after 14 days
Protocol: Apples were dipped into an aqueous solution of the formulated compound to be examined. The apples were then populated with 10 L1 larvae of the codling moth (Carpocapsa pomonella). After 14 days of storage at about 25° C., the effect of the compound on the larvae was determined (mortality). The compounds of the following examples were active: Nos. 14, 15, 17, 18, 70, 1007, 1008, 1009, 1036, 1038, 197.

[5] = tested on: Plutella maculipennis; assay: Example K: sprayed white cabbage leaf, diamondback moth larvae mortality; details: 500 ppm or less, after 3 days
Protocol: A white cabbage leaf was sprayed with an aqueous solution of the formulated compound to be examined. After the spray coating had dried, the treated leaf was populated with larvae of the diamondback moth (Plutella maculipennis). After 3 days of storage at about 23° C., the effect of the compound on the larvae was determined (mortality). The compounds of the following examples were active: 60, 70, 1002, 1004, 1005, 1036, 197.

[6] = tested on: Leptinotarsa decemlineata; assay: Example L: potato leaves and larvae sprayed, Colorado beetle mortality; details: 500 ppm or less, after 4 days
Protocol: Potato leaves were populated with larvae of the Colorado beetle (Leptinotarsa decemlineata). Leaves and larvae were then sprayed with an aqueous solution of the formulated compound to be examined. After 4 days of storage at about 25° C., the effect of the compound on the larvae was determined (mortality). The compounds of the following examples were active: 60, 70, 1002, 1004, 1005, 1036, 1047, 197.

[7] = tested on: Ctenocephalides felis; assay: Example M: cat fleas fed with treated cattle blood, mortality; details: 500 ppm or less; adult fleas fed blood-preparation mixture; after 48 hours
Protocol: The formulated compound was mixed with defibrinated cattle blood. 10 adult cat fleas (Ctenocephalides felis) were fed with this blood-preparation mixture. After 48 hours at about 38° C., the effect of the compound on the fleas was determined (mortality). The compounds of the following examples were active: 70, 1002, 1004, 1005, 1036, 60, 197, 1057.

[8] = tested on: Spodoptera exigua; assay: Example Y: cotton plants sprayed, cut leaves, sugar beet armyworm mortality; details: 500 ppm or less, leaves cut after drying, L2 larvae, after 4 days
Protocol: Cotton plants were sprayed with an aqueous solution of the formulated compound to be examined. After drying, leaves were cut off, placed into a Petri dish and populated with 5 L2 larvae of the sugar beet armyworm (Spodoptera exigua). After 4 days of storage at about 23° C., the mortality among the larvae was determined. The following examples were active: 1036, 70, 60, 1047, 197.

[9] = tested on: Spodoptera exigua; assay: Example Z: cotton leaves with larvae sprayed, sugar beet armyworm mortality; details: 500 ppm or less; cotton leaves populated then sprayed; L2 larvae; after 4 days
Protocol: Cotton leaves were populated with 5 L2 larvae of the sugar beet armyworm (Spodoptera exigua) and then sprayed with an aqueous solution of the formulated compound to be examined. After 4 days of storage at about 23° C., the mortality among the larvae was determined. The following examples were active: 1036, 70, 60, 1047, 197.

[10] = tested on: Carpocapsa pomonella; assay: Example AA: insect diet mixed with compound, codling moth L1 larvae mortality; details: 500 ppm or less, compound mixed into insect diet, after 14 days
Protocol: Insect diet was mixed with an aqueous solution of the formulated compound to be examined and populated with 10 L1 larvae of the codling moth (Carpocapsa pomonella). After 14 days of storage at about 23° C., the mortality among the larvae was determined. The following examples were active: 70, 197.

[11] = tested on: Heliothis virescens; assay: Example AB: cotton leaves with larvae sprayed, tobacco budworm mortality; details: 500 ppm or less; cotton leaves with L2 larvae sprayed; after 4 days
Protocol: Cotton leaves were placed into a Petri dish, populated with 5 L2 larvae of the American tobacco budworm (Heliothis virescens) and sprayed with an aqueous solution of the formulated compound to be examined. After 4 days of storage at about 25° C., the mortality among the larvae was determined. The following examples were active: 70, 1047, 197.

[12] = tested on: Diabrotica undecimpunctata; assay: Example AC: treated soil, southern corn rootworm eggs mortality; details: 500 ppm or less, eggs added after 0d, 21d and 42d, after 2 weeks
Protocol: An aqueous solution of the formulated compound to be examined was mixed with soil. After 0d, 21d and 42d, eggs of the southern corn rootworm (Diabrotica undecimpunctata) were placed together with 2 pre-swollen maize corns into a dish, covered with the treated soil and moisted with 10 ml of water. Soil and eggs were placed in a greenhouse (23° C., 60% relative atmosphere humidity). After 2 weeks of storage, the effect of the compound on the eggs and any larvae hatched therefrom was determined (mortality). The following examples were active: 70, 60, 197, 204.

[13] = tested on: Trialeurodes vaporariorum; assay: Example AD: bush beans sprayed, white fly larvicidal action; details: 500 ppm or less; bush beans sprayed after hatching; after 11 days
Protocol: For oviposition, bush beans (Phaseolus vulgaris) were populated for 48 hours with adults of the white fly (Trialeurodes vaporariorum). After the larvae had hatched, the plants were sprayed to run-off point with an aqueous solution of the formulated compound to be examined. After 11 days, the larvicidal action was determined. The following examples were active: 1036, 70, 60, 1040, 197.

[14] = tested on: Rhipicephalus sanguineus; assay: Example AF: treated filter paper, tick larvae mortality; details: 500 ppm or less, after 24 hours
Protocol: The formulated compound was pipetted onto filter paper. After the solvent had evaporated, 20–30 tick larvae (Rhipicephalus sanguineus) were placed onto the filter paper. After 24 hours at about 25° C., the effect of the compound on the ticks was determined (mortality). The following examples were active: 197, 1057.

[15] = tested on: Aphis fabae; assay: Example R: field bean, root-systemic activity on black bean aphids; details: 500 ppm or less; solution pipetted into bottle; after 3 and 6 days
Protocol: Germinated field bean seeds (Vicia faba) with radicles were transferred into brown glass bottles filled with tap water. Four milliliters of an aqueous solution of the formulated compound to be examined were pipetted into the brown glass bottle. The field bean was then heavily populated with approximately 100 black bean aphids (Aphis fabae). Plant and animals were then stored in a climatized chamber (16 hours of light/day, 25° C., 40–60% relative atmospheric humidity). After 3 and 6 days of storage, the root-systemic activity of the compound on the aphids was determined (mortality). The following examples were active: 184, 186, 305, 220, 265.

[16] = tested on: Spodoptera exigua; assay: Example S: treated L2 larvae and insect diet, sugar beet army worm mortality; details: 500 ppm or less, after 6 days
Protocol: A Petri dish whose bottom was covered with filter paper and which contains about 5 ml of insect diet is prepared. Five L2 larvae of sugar beet army worm (Spodoptera exigua) were counted into a small beaker. 200 μl of an aqueous solution of the formulated compound to be examined were pipetted into the beaker. The treated larvae were then poured into the Petri dish and a further 200 μl of the aqueous solution were distributed over the insect diet. The Petri dish was closed and then stored at 25° C. in a climatized chamber. After 6 days of storage, the mortality among the larvae was determined. The following examples were active: 1036, 175, 184, 1051, 1054, 1055, 234, 1057, 1059, 1060, 1063, 243, 245, 251, 257, 259, 266, 1065, 1067, 290, 291.

[17] = tested on: Aedes aegypti; assay: Example AG: microtiter plate, yellow fever mosquito larvicidal activity; details: 500 ppm or less, after 3 days

Cc1cc(C(F)(F)F)cc(C#CCN2CCC(C)CC2)n1 [Example 197]
active: mortality among the leafhopper larvae [1] | effect on the eggs and hatched larvae (mortality) [2] | effect on the eggs and hatched larvae (mortality) [3] | effect on the larvae (mortality) [4] | effect on the larvae (mortality) [5] | effect on the larvae (mortality) [6] | effect on the fleas (mortality) [7] | mortality among the larvae [8] | mortality among the larvae [9] | mortality among the larvae [10] | mortality among the larvae [11] | effect on the eggs and hatched larvae (mortality) [12] | larvicidal action [13] | effect on the ticks (mortality) [14]

CC1CCN(CC#Cc2cccc(-c3ccc([N+](=O)[O-])cc3)c2)CC1 [Example 220]
active: root-systemic activity on the aphids (mortality) [15]

CC1CCN(CC#Cc2cc(C(F)(F)F)cc(Cl)n2)CC1.Cl [Example 1057]
active: effect on the eggs and hatched larvae (mortality) [2] | effect on the eggs and hatched larvae (mortality) [3] | effect on the fleas (mortality) [7] | mortality among the larvae [16] | effect on the ticks (mortality) [14] | larvicidal activity [17]
